18 compounds from US11059833B2, “BCKDK inhibitors” (Pfizer Inc., priority 2019, dated 2021) can be followed below.

The IC50 is the midpoint of a concentration-inhibition curve.

Read-outs that look alike come from different tables or passages of the source.

In assay [1] the target is T1, human BCKDK (Homo sapiens, UniProt O14874).
T1 construct: human BCKDK (residues 31-412 of the protein pre-processing); 6xHis (N, cleaved yes); MBP (N, cleaved yes); TEV protease site (ENLYFQG) (N, cleaved yes); made in house; host or cells: BL21(DE3) E. coli, co-expressed with GroEL-GroES
As to the kind of experiment: In Vitro FRET (TR-FRET) BCKDK activity assay, phosphorylation of BCKDHE1α-E2 fusion substrate. It counts as biochemical. The protocol: For lipoylation, fusion substrate was incubated with LpIA at a 10:1 (substrate:LplA) ratio in 20 mM sodium phosphate pH 7.4, 6 mM MgCl2, 4 mM ATP, 2 mM DTT, 3 mM DL-6,8-thioctic acid at 37° C.
BCKDK activity was monitored by phosphorylation of a HIS-tagged fusion BCKDHE1α-E2 substrate protein as described above and was detected using a time resolved-fluorescence resonance energy transfer (TR-FRET) assay system. Compounds were spotted into a 384 well plate, and purified human BCKDK protein was added to the plated compound. […] The reaction was terminated with EDTA. […] Signal intensity was proportional to the level of BCKDK-mediated substrate phosphorylation. Reactions were normalized to zero percent effect with DMSO and one hundred percent effect with 600 μM Radicicol, a known BCKDK inhibitor. IC50 curves were generated using ABASE software (IDBS, Boston Mass.).

For assay [2], the system named is phosphorylation of S293 BCKDH. As to the kind of experiment: Phospho BCKDHA AlphaLISA in human skeletal myocytes. It counts as cell-based. The settings on record: 1 h, 60 minutes, geometric mean. On the procedure: Prior to conducting the assay, BCKDH antibodies (Bethyl A303-790A) were biotinylated using the ChromaLink™ One-Shot Antibody Biotinylation Kit B-9007-009K and phospho Ser293 BCKDHA antibodies (Bethyl A304-672A) were directly conjugated to AlphaLISA Acceptor Beads (custom conjugation performed by Perkin Elmer's Lance/Delfia Custom Services, Boston Mass.). Human skeletal myocytes (Gibco A11440) were plated in a 384 well plate at a density of 7500 live cells/well and grown in skeletal muscle growth media containing the media supplement and chick embryo extract (Promocell C-23060 and C-23160, MP92850145). After overnight incubation, media was removed, and BCKDK inhibitors were added in assay media (growth media diluted 10-fold in PBS). After 60 minutes, the media was removed, the cells were washed with PBS and lysed in 10 μL of buffer (Cell Signaling #9803) containing 2 nM biotinylated total BCKDH antibodies. Samples were incubated for 60 minutes, and 5 μL of AlphaLISA acceptor beads conjugated with phospho-S293 BCKDH antibodies were added 1× Alpha buffer. After a 60 minute incubation, 5 μL streptavidin donor beads (40 μg/μL) beads were added in 1× Alpha buffer while protecting from light. Fluorescence was emitted when the phospho and total BCKDH antibodies were within proximity, signifying phosphorylation of S293 BCKDH. Fluorescence was monitored on the Envision plate reader. The zero percent effect was determined from DMSO treatment and the maximal effect was assessed relative to the BCKDK inhibitor BT2. IC50 curves were generated using ActivityBase software (IDBS, Boston Mass.).

Assay [3] has as its system Dahl salt sensitive male rats. As to the kind of experiment: Heart failure rat model (high salt diet). Format: in vivo. The settings on record: 100 mg/kg PO once daily. The protocol:
Dahl salt sensitive male rats (Charles River strain SS/JrHsdMcwiCrl) were fed control diet or 6% high salt diet (iD03121701-AIN-76a rodent diet with added 6% NaCl) for 21 weeks in total. At week 5, the high salt diet-fed rats were dosed PO with 100 mg/kg BT2 or vehicle once daily for the last 16 weeks of study. Echocardiography was performed at week 18 (myocardial performance index (MPI): control diet 0.567±0.034, high salt+vehicle 0.810±0.039, high salt+BT2 0.660±0.030; Isovolumic relaxation time (IVRT): control diet 23.154±0.60 ms, high salt+vehicle 36.507±2.20 ms, high salt+BT2 31.605±1.78 ms; Intraventricular septal thickness at diastole (IVDd): control 2.03±0.088 mm, high salt+vehicle 2.877±0.110 mm, high salt+BT2 2.489±0.089 mm). NT-pro-BNP (MSD K153JKD; control […], high salt+vehicle 1003.0±200.8 μg/mL, high salt+BT2 503.4±84.96 μg/mL), and proANP (MSD K153MBD; control 33.50±5.4 ng/mL, high salt 65.19±8.3 ng/mL, high salt+BT2 38.81±7.0 ng/mL) levels were measured in plasma using MSD assays at the terminal time point. Heart weights were measured at euthanasia and normalized to tibia length (heart/tibia control 0.033±0.001 g/mm; high salt+vehicle 0.042±0.001 g/mm, high salt+BT2 0.038±0.001 g/mm).

The subject of assay [4] is Mice fed 60% high fat diet. The assay can be described thus: Diabetic animal model: fasting glucose and oral glucose tolerance test. The settings on record: for Area under the curve for the glucose tolerance test as percent of vehicle treated group: 1 g/kg dextrose; for fasting plasma glucose levels: high fat diet mice, mean±SEM. Format: in vivo. The protocol:
Blood glucose was measured 15, 30, 60, and 120 minutes after the gavage, and the data were plotted and analyzed as area under the curve using GraphPad Prism 8.0 (GraphPad Software, La Jolla, Calif.). Blood was concomitantly collected in EDTA tubes at the 0, 15 and 30 minute time points, spun down at 10K RPM for 10 minutes. […] Area under the curve for the glucose tolerance test as percent of vehicle treated group was 100.0±3 (vehicle, n=29), 100±4 (20 mg/kg, n=18), 87±2 (60 mg/kg, n=30), 78±2 (180 mg/kg, n=16).

Where [5] appears, read: purified human BCKDK, 15 μM ATP, geometric mean, read-out: In Vitro FRET IC50.

Consider `O=C(O)c1sc2cc(Cl)ccc2c1Cl` [BT2, 3,6-dichloro-1-benzothiophene-2-carboxylic acid], for which the IC50 in assay [1] is 1.3 µM; in assay [2], 4.5 µM. Besides, in assay [3] (at euthanasia (high salt+vehicle 0.042±0.001, control 0.033±0.001)), the “heart weight normalized to tibia length (heart/tibia)” value is reported as 0.038±0.001 g/mm. Also, the “myocardial performance index (MPI)” value in assay [3] (echocardiography at week 18 (high salt+vehicle 0.810±0.039, control diet 0.567±0.034)) came to 0.660±0.030. Also, in assay [3] (echocardiography at week 18 (high salt+vehicle 2.877±0.110, control 2.03±0.088)), the “Intraventricular septal thickness at diastole (IVDd)” value came to 2.489±0.089 mm. For the same compound, the “Isovolumic relaxation time (IVRT)” value in assay [3] (echocardiography at week 18 (high salt+vehicle 36.507±2.20, control diet 23.154±0.60)) is 31.605 ± 1.78 ms. The “proANP level in plasma” value in assay [3] (terminal time point (high salt 65.19±8.3, control 33.50±5.4)) was determined as 38.81 ± 7.0 ng/mL. Further, the “NT-pro-BNP level in plasma” value in assay [3] (terminal time point (high salt+vehicle 1003.0±200.8, control 294.9±26.04)) is 503.4 ± 84.96 µg/mL.

`O=C(O)c1sc2cc(F)ccc2c1Cl` [BT2F, 3-chloro-6-fluoro-1-benzothiophene-2-carboxylic acid, reference compound]: in assay [1] (setting [5]), the 50% inhibitory concentration (IC50) is 0.81 µM.

On to `O=C(O)c1sc2cc(F)sc2c1Cl` [Example 1, 3-Chloro-5-fluorothieno[3,2-b]thiophene-2-carboxylic acid], for which the concentration for half-maximal inhibition (IC50) in assay [2] is 0.72 µM. Further, the “Area under the curve for the glucose tolerance test as percent of vehicle treated group” value was 100±4% of vehicle treated group in assay [4] (20 mg/kg PO, n=18 (vehicle 100.0±3)); 87±2% of vehicle treated group in assay [4] (60 mg/kg PO, n=30 (vehicle 100.0±3)); 78±2% of vehicle treated group in assay [4] (180 mg/kg PO, n=16 (vehicle 100.0±3)). The “fasting plasma glucose levels” value stood at 230 ± 8 mg/dL in assay [4] (20 mg/kg PO, n=18 (vehicle 237±5)); 221 ± 4 mg/dL in assay [4] (60 mg/kg PO, n=40 (vehicle 237±5)); 206 ± 5 mg/dL in assay [4] (180 mg/kg PO, n=19 (vehicle 237±5)).

Take `O=C(O)c1sc2cc(F)sc2c1Br` [Example 2, 3-Bromo-5-fluorothieno[3,2-b]thiophene-2-carboxylic acid]: the concentration for half-maximal inhibition (IC50) in assay [1] (setting [5]) is 0.12 µM; in assay [2], 1.5 µM.

With `O=C(O)c1sc2cc(F)sc2c1C(F)F` [Example 3, 3-(Difluoromethyl)-5-fluorothieno[3,2-b]thiophene-2-carboxylic acid], the IC50 in assay [1] (setting [5]) was 0.065 µM; in assay [2], 1.8 µM.

Regarding `O=C(O)c1cc2sc(F)c(F)c2s1` [Example 4, 5,6-Difluorothieno[3,2-b]thiophene-2-carboxylic acid], the IC50 was determined as 0.058 µM in assay [1] (setting [5]) and 0.39 µM in assay [2].

As for `O=C(O)c1sc2cc(F)sc2c1F` [Example 5, 3,5-Difluorothieno[3,2-b]thiophene-2-carboxylic acid], the IC50 in assay [1] (setting [5]) amounted to 0.14 µM; in assay [2], 0.41 µM.

For the compound `Cc1c(F)sc2cc(C(=O)O)sc12` [Example 6, 5-fluoro-6-methylthieno[3,2-b]thiophene-2-carboxylic acid], the IC50 was 0.23 µM in assay [1] (setting [5]) and 4.2 µM in assay [2].

Regarding `O=C(O)c1sc2cc(Cl)sc2c1F` [Example 7, 5-chloro-3-fluorothieno[3,2-b]thiophene-2-carboxylic acid], the IC50 in assay [1] (setting [5]) was 0.26 µM; in assay [2], 1.1 µM.

`O=C(O)c1sc2c(F)c(F)sc2c1Cl` [Example 8, 3-chloro-5,6-difluorothieno[3,2-b]thiophene-2-carboxylic acid]: the IC50 stood at 0.26 µM in assay [1] (setting [5]) and 1.8 µM in assay [2].

On to `Cc1c(C(=O)O)sc2cc(F)sc12` [Example 9, 5-fluoro-3-methylthieno[3,2-b]thiophene-2-carboxylic acid], for which the IC50 stood at 0.28 µM in assay [1] (setting [5]) and 1.6 µM in assay [2].

`O=C(O)c1cc2sc(F)c(Cl)c2s1` [Example 10, 6-chloro-5-fluorothieno[3,2-b]thiophene-2-carboxylic acid]: the IC50 in assay [1] (setting [5]) came out at 0.33 µM; in assay [2], 3.4 µM.

As for `O=C(O)c1sc2cc(Cl)sc2c1C(F)F` [Example 11, 5-chloro-3-(difluoromethyl)thieno[3,2-b]thiophene-2-carboxylic acid], the IC50 in assay [1] (setting [5]) was 0.37 µM; in assay [2], 2.2 µM.

Regarding `O=C(O)c1cc2sc(Cl)c(F)c2s1` [Example 12, 5-chloro-6-fluorothieno[3,2-b]thiophene-2-carboxylic acid], the IC50 is 0.4 µM in assay [1] (setting [5]) and 1.2 µM in assay [2].

Take `O=C(O)c1sc2c(F)c(Cl)sc2c1F` [Example 13, 5-chloro-3,6-difluorothieno[3,2-b]thiophene-2-carboxylic acid]: the half-maximal inhibitory concentration (IC50) in assay [1] (setting [5]) stood at 0.47 µM; in assay [2], 1.9 µM.

In the case of `Cc1c(C(=O)O)sc2cc(Cl)sc12` [Example 14, 5-chloro-3-methylthieno[3,2-b]thiophene-2-carboxylic acid], the IC50 in assay [1] (setting [5]) stood at 0.8 µM.

For the compound `O=C(O)c1sc2cc(Cl)sc2c1Br` [Example 15, ammonium 3-bromo-5-chlorothieno[3,2-b]thiophene-2-carboxylate], the IC50 in assay [1] (setting [5]) came out at 0.84 µM; in assay [2], 2.8 µM.

`CCc1c(C(=O)O)sc2cc(Cl)sc12` [Example 16, 5-chloro-3-ethylthieno[3,2-b]thiophene-2-carboxylic acid]: the 50% inhibitory concentration (IC50) in assay [1] (setting [5]) was 0.88 µM; in assay [2], 3.6 µM.
